# Experiments:
# Ramos [1] = conditions: previous studies (Uckun et al. 1992); cited from earlier work
# [2] = tested on: calf intestinal alkaline phosphatase; conditions: reported by Cortizo et al.; cited from earlier work
# Ramos cells = experiment: Anti-phosphotyrosine western blot of cell lysates; format: cell-based, human; conditions: FIG. 11; whole cell lysates
# A2780 = experiment: In vitro cytotoxicity, XTT assay; conditions: Homo sapiens, A2780, 72 h, read-out: IC50 (cytotoxicity)
# Procedure: (§1) The vanadate compound pV(phen) was tested for in vitro cytotoxicity in a panel of human tumor cell lines. The cell lines used were a human colon carcinoma cell line, HCT116, and two drug-resistant sublines. The HCT116(VM46) subline was selected for resistance to VM-26 and expresses the multidrug resistant (MDR) phenotype including resistance to lipophilic anticancer drugs such as paclitaxel, VP-16, VM-26, doxorubicin, and vinblastine. This cell line overexpresses P-glycoprotein, a cell surface drug efflux pump, which limits accumulation of anticancer drugs such as the ones mentioned above. […] The compound pV(phen) was also evaluated in the ovarian carcinoma cell line A2780 and a paclitaxel resistant subline A2780-Tax22.
# (§2) In the cytotoxicity assays, cells were plated and 24 hr later drugs were added and serially diluted. After 72 hr of continuous drug exposure, the tetrazolium dye XTT was added. A dehydrogenase enzyme in live cells reduces the XTT to a form that absorbs light at 450 nm which can be quantitated spectrophotometrically. The greater absorbance, the greater is the number of live cells. The results are expressed as a IC50 which is a drug concentration required to inhibit cell proliferation (i.e., absorbance at 450 nm) to 50% of that of untreated control cells.
# HCT116 = experiment: In vitro cytotoxicity, XTT assay; conditions: Homo sapiens, HCT-116, 72 h, read-out: IC50 (cytotoxicity)
# Procedure: as §1, §2
# A2780/Tax22 = experiment: In vitro cytotoxicity, XTT assay
# Procedure: as §1, §2
# HCT116(VM)46 = experiment: In vitro cytotoxicity, XTT assay
# Procedure: as §1, §2
# HCT116(VP)35 = experiment: In vitro cytotoxicity, XTT assay
# Procedure: as §1, §2
# Ramos [3] = experiment: Clonogenic assay in methylcellulose; format: cell-based, human; conditions: Ramos B cells
# Ramos [4] = experiment: Clonogenic assay in methylcellulose; format: cell-based, human; conditions: doses of 10 and 25 μM
# Procedure: The selective cytotoxicity of BMLOV was examined in clonogenic assays. Cells were grown in methylcellulose media and the number of colonies formed after seven days of treatment with various doses of the drug were determined. The clonogenic assays were performed with six replicates for each treatment as described [F. M. Uckun et al., J. Exp. Med. 163:347-368 (1986); F. M. Uckun & J. A. Ledbetter, Proc. Natl. Acad. Sci. USA 85:8603-8607 (1988)). The data is given plus/minus the standard error of the mean.
# For assays of cellular proliferation, cells were grown five days in the presence of the indicated concentrations of BMLOV, pulsed 6 hr with [^3 H]-thymidine (New England Nuclear, Boston, Mass.), and counted in a liquid scintillation counter. Human peripheral blood lymphocytes (PBL) from normal volunteers were isolated from lymphocyte separation medium (Litton Bionetics, Kensington, Md.) by density gradient centrifugation. Monocytes were depleted from PBL by two rounds of plastic absorption for 30 minutes at 37° C. B cells were enriched for by negative selection using complement plus monoclonal antibodies to CD2, CD3, CD4, and CD8 for complement depletion. Clonogenic assays of colony formation in methylcellulose medium were performed as previously described (F. M. Uckun et al. (1992), supra).
smiles,measurement,setting,value
[Na+].[Na+].[Na+].[O]=[V]([O-])([O-])[O-] [sodium orthovanadate],effect on Ramos cells in clonogenic assays,Ramos [1],only gave slight effects
same,concentration strongly inhibiting calf intestinal alkaline phosphatase,[2],less than 20 μM
CC(=O)C=C([O-])c1ccccc1.CC(=O)C=C([O-])c1ccccc1.[O]=[V+2] [vanadyl 1-benzoyl acetonate],induction of cellular tyrosine phosphorylation by analogs,Ramos cells,strongly induced cellular tyrosine phosphorylation
"CC(=O)O[C@H]1C(=O)[C@@]2(C)[C@H]([C@H](OC(=O)c3ccccc3)[C@]3(O)C[C@H](OC(=O)[C@H](O)[C@@H](NC(=O)c4ccccc4)c4ccccc4)C(C)=C1C3(C)C)[C@]1(OC(C)=O)CO[C@@H]1C[C@@H]2O [Paclitaxel, reference compound]",IC50,A2780,4 nM
same,IC50,HCT116,3 nM
same,IC50,"A2780/Tax22; Homo sapiens, A2780, 72 h, read-out: IC50 (cytotoxicity)",75 nM
same,fold resistance relative to parental cell line,"A2780/Tax22; vs A2780, 4320 min",18 fold
same,IC50,"HCT116(VM)46; Homo sapiens, HCT-116/VM46, 72 h, read-out: IC50 (cytotoxicity)",226 nM
same,fold resistance relative to parental cell line,"HCT116(VM)46; vs HCT116, 4320 min",75 fold
same,IC50,"HCT116(VP)35; Homo sapiens, HCT-116, 72 h, read-out: IC50 (cytotoxicity)",2 nM
same,fold resistance relative to parental cell line,"HCT116(VP)35; vs HCT116, 4320 min",0.7 fold
CC(=O)C=C(C)[O-].CC(=O)C=C(C)[O-].[Cu+2] [cupric acetylacetonate],induction of cellular tyrosine phosphorylation by analogs,Ramos cells,"induced tyrosine phosphorylation, but in a different pattern than for the vanadyl compounds"
same,Colonies,Ramos [3]; 1 μM cupric acetylacetonate,5749
same,Colonies,Ramos [3]; 5 μM cupric acetylacetonate,226
same,Colonies,Ramos [3]; 10 μM cupric acetylacetonate,127
same,Colonies,Ramos [3]; 25 μM cupric acetylacetonate,31
same,"sensitivity in clonogenic assay, in words",Ramos [4],sensitive to the compound
CC(=O)/C=C(/C)[O-].CC(=O)/C=C(/C)[O-].[O]=[V+2] [vanadyl acetylacetonate],induction of cellular tyrosine phosphorylation by analogs,Ramos cells,strongly induced cellular tyrosine phosphorylation
